What follows are compounds tested against T1, human bradykinin B2 receptor (hB2R) (Homo sapiens, UniProt P30411) (assay: cell-based human bradykinin B2 receptor calcium mobilization (hB2R-CaM) assay). Conditions: HTS041C cells, bradykinin at EC80, calcium mobilization; read-out: IC50-value towards human bradykinin B2 receptor (hB2R).
T1 sequence (P30411 1-391): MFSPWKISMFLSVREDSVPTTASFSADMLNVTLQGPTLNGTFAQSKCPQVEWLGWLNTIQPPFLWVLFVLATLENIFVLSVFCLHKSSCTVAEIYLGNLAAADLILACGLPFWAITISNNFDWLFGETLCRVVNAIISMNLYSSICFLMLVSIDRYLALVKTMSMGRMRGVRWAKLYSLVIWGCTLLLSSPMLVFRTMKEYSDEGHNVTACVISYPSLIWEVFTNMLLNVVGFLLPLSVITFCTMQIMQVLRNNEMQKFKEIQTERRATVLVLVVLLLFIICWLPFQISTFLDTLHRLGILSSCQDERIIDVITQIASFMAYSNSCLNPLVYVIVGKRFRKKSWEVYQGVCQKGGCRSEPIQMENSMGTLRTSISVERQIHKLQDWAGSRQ
Procedure, shortened: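 HTS041C cells stably expressing hB2R were serum-reduced, loaded with Calcium 6 dye and pre-incubated with compound (8-point, n=2, 0.1% DMSO) for 25 min at 37° C. Bradykinin was then added at EC80. IC50 came from a 4-parameter logistic fit of the max-min fluorescence signal (485/525 nm).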

IC50, ≤ 0.05 µM:
Cc1cc(-c2ncnn2C)c2cccc(OCc3c(Cl)cc(F)cc3[C@H](C)NC(=O)[C@H](C)F)c2n1 [Compound 203]
Cc1cc(-c2ncnn2C)c2cccc(OCc3c(Cl)cc(F)cc3[C@H](C)NC(=O)[C@@H](C)F)c2n1 [Compound 204]
Cc1cc(-c2ncc(C#N)n2C)c2cccc(OCc3c(Cl)cc(F)cc3[C@H](C)NC(=O)COC(F)F)c2n1 [Compound 205]
Cc1cc(-c2ncc(C#N)n2C)c2cccc(OCc3c(Cl)cc(F)cc3[C@H](C)NC(=O)CC(F)(F)F)c2n1 [Compound 206]
Cc1cc(-c2ncc(C#N)n2C)c2cccc(OCc3c(Cl)cc(F)cc3[C@H](C)NC(=O)C(C)F)c2n1 (some centres unmarked) [Compound 207]
[2H][C@@](C)(NC(=O)CC(F)(F)F)c1cc(F)cc(Cl)c1COc1cccc2c(-n3ncnc3C)cc(C)nc12 [Compound 208]
[2H][C@@](C)(NC(=O)CC(F)F)c1cc(F)cc(Cl)c1COc1cccc2c(-n3ncnc3C)cc(C)nc12 [Compound 209]
[2H][C@@](C)(NC(=O)CC(F)F)c1cc(F)cc(Cl)c1COc1cccc2c(-c3ncnn3C)cc(C)nc12 [Compound 210]
[2H][C@@](C)(NC(=O)[C@@H](C)F)c1cc(F)cc(Cl)c1COc1cccc2c(-c3ncnn3C)cc(C)nc12 [Compound 211]
[2H][C@@](C)(NC(=O)[C@H](C)F)c1cc(F)cc(Cl)c1COc1cccc2c(-n3ncnc3C)cc(C)nc12 [Compound 212]
[2H][C@@](C)(NC(=O)[C@H](C)F)c1cc(F)cc(Cl)c1COc1cccc2c(-c3ncnn3C)cc(C)nc12 [Compound 213]

— patent US11820756B2, “Bradykinin B2 receptor antagonists” (Pharvaris Netherlands B.V., priority 2017, dated 2023)
